In one assay the target is T1, TRIB3 protein (Homo sapiens, UniProt Q96RU7).
T1 construct: GST; purchased Sinobiological Inc. 10731-H09B
T1 sequence (Q96RU7 1-358): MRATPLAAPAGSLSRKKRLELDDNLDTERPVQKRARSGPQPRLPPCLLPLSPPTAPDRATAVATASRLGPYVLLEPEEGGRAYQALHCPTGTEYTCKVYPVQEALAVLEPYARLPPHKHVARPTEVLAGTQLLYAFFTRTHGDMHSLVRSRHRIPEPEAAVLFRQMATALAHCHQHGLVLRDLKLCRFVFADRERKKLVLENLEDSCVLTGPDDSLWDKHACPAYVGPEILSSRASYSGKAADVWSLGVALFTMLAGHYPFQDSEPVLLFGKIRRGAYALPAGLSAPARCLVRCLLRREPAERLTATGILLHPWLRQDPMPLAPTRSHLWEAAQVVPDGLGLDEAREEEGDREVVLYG
As to the kind of experiment: SPR kinetic interaction of α-helical peptides (CM1-CM4) with TRIB3. The assay is classed as binding. The settings on record: result in words. As for the experimental part: (§1) Binding kinetics between MYC and UBE3B, TRIB3 and the indicated α helical peptides, MAX and the indicated α helical peptides, or MYC and MAX were analyzed using a BIAcore T200 instrument (GE Healthcare, CA, USA) as described previously. Briefly, binding reactions were performed in HBS-EP buffer (GE Healthcare) at pH 7.4. TRIB3/MYC/MAX protein was coated on the flow cell of a CM5 sensor chip by direct immobilization. Another flow cell, not coated with an immobilized protein, was used to evaluate nonspecific binding. The binding analyses were performed at a flow rate of 25 μl/min at 25 °C. A total of 0–200 nM peptide or 0–500 nM TRIB3 protein was passed over the surface of the sensor chip. The association rate constant (Ka) and the dissociation rate constant (Kd) were calculated according to the BIA evaluation software. The dissociation constant (KD) was determined by Kd/Ka.

The next assay has as its system MAX and MYC. As to the kind of experiment: SPR kinetic interaction of MAX and MYC proteins with indicated peptides (CM1-CM4). The assay is classed as binding. The settings on record: result in words. As for the experimental part: as §1
In a further assay the test system is MAX protein. Description: SPR kinetic interaction of α-helical peptides (CM1-CM4) with MAX. The assay is classed as binding. The settings on record: result in words. The method, then: as §1
For assay [1], the system named is MYC protein in Raji cells. Description: MYC degradation in control or TRIB3-deleted Raji cells with CHX or CHX plus MG132. The assay is classed as cell-based, human. The note with it: result in words. As for the experimental part: Co-IP experiments were performed as described previously. Briefly, cells were collected and lysed for 30 min on ice. Soluble lysates were incubated with the indicated antibodies at 4 °C overnight, followed by incubation with Protein A/G Plus-Agarose (Santa Cruz Biotechnology, TX, USA) at 4 °C for 2 h. Soluble lysates were incubated with the indicated Anti-Myc magnetic beads (Bimake.com, B26302), Anti-Flag Affinity Gel (Bimake.com, B23102) or Anti-HA Affinity Gel (Bimake.com, B23302) at 4 °C overnight. Immunocomplexes were separated from the beads and then boiled for 10 min. The precipitated proteins were subjected to SDS-PAGE and blotted with specific antibodies. For immunoblotting assays, proteins were extracted from cells, spleens, or lymphoma tissues using RIPA buffer (Cell Signaling Technology, MA, USA). A BCA Protein Assay Kit was used to determine protein concentrations. Protein extracts were separated by SDS-PAGE, transferred onto PVDF membranes, and subjected to immunoblot analysis. Western blot images were captured by a Tanon 5200 chemiluminescent imaging system (Tanon, Shanghai, […]). Human lymphoma and benign LN paraffin tissue microarrays were purchased from US Biomax (LM482a).

Assay [2] deals with Myc^EμCre^ERT2Trib3^F/+ mice. As to the kind of experiment: Survival of Myc^EμCre^ERT2Trib3^F/+ mice treated with vehicle or tamoxifen (induced Trib3 deletion). The assay is classed as in vivo, mouse. The source says:
NOD-scid IL2Rg^null (NSG) mice (4–6 weeks old, male) were purchased from the Nanjing Biomedical Research Institute of Nanjing University (Nanjing, China). Trib3-knockout (Trib3^loxP/loxP, Trib3^F/F) mice (5–6 weeks old, male) were generated as described in our previous study (Li et al.[18]). Cre^ERT2 (B6. Cg-Tg(CAG-cre/Esr1*)5Amc/J) mice (5–6 weeks old, 1 male and 2 females) (The Jackson Laboratory, 004682) were obtained from The Jackson Laboratory (CA, USA). When Cre^ERT2 transgenic mice bred with mice containing loxP-flanked sequences, tamoxifen-inducible Cre-mediated recombination results in deletion of the floxed sequences in widespread cells/tissues of the offspring. Cre^Lck (B6. Cg-Tg(Lck-cre)548Jxm/J) mice (5–6 weeks old, 1 male and 2 females; The Jackson Laboratory, 003802), and Cre^CD19 (B6.129P2(C)-Cd19tm1(cre)Cgn/J) mice (5–6 weeks old, 1 male and 2 females; The Jackson Laboratory, 006785) were obtained from the Shanghai Research Center for Model Organisms (Shanghai, China). B6.129P2-Lyz2tm1(cre)/Nju (LysM-Cre) mice(5–6 weeks old, 1 male and 2 females; N000056) were obtained from Model Animal Resource Information Platform. […] Deletion of Trib3 was corroborated by quantitative PCR and immunoblot analysis. […]

Another assay has as its system TRIB3 and MYC. Description: SPR kinetic interaction of TRIB3 and MYC proteins with or without CM4. The assay is classed as binding. The note with it: in vitro, result in words. As for the experimental part:
as §1

The test system of another assay is MYC ubiquitination. Description: UBE3B-mediated MYC ubiquitination in HEK 293T cells with GSK3 inhibitor. The assay is classed as cell-based. The settings on record: GSK3 inhibitor 10 µM for 12 hr, Co-IP, result in words. As for the experimental part: HEK 293T cells were cotransfected with Myc-tagged MYC, HA-tagged or Flag-tagged ubiquitin, and other indicated plasmids. Cells were pretreated for 6 h with MG132 (Sigma Aldrich, C2211) at a concentration of 20 μM, and cell extracts were prepared using lysis buffer containing 1% TX-100 supplemented with 1 mg/ml iodoacetamide. We used a monoclonal anti-HA Affinity Gel (Bimake.com, B23302) or a ubiquitin antibody (CST, #3933S, 5 μg/IP) to purify ubiquitinylated proteins. Precipitates were analyzed by immunoblot with an anti-MYC antibody (CST, #9402 S, 1:1000).
Suppleme n t a ry F i g ur e 4 . U B E3 B I n d uc e d MYC Ubiquitina tion a t Lys ine 4 27 . Re la te d to Fig. 3 . […]
(d) The direct interaction of UBE3B and MYC in the purified system. […] HEK 293T cells were transfected with th e indicated mutants of MYC, and the ubiquitination of MYC was detected by Co -IP assays. […] HEK 293T cells were transfected with the indicated mutants of MYC, and the ubiquitination of MYC was detected by Co-IP assays. […] HEK 293T cells were transfected with the indicated mutants of MYC, and the degradation of MYC was detected by western blotting. […]
Raji cells were transfected with the indicated siRNAs and plasmids, and the ubiquitination of MYC was detected by Co-IP assays. […] Th e MY C protein was detected by Western blot analysis with GAPDH as a loading control. […] The MYC ubiquitination was detected by Co-IP assays . […]

Where a SMILES comes first, the peptide text is derived from it. The star is where a group is joined. Cbz = O=C(OCc1ccccc1)*

“KVVILKKATAYILSV [CM2, α-helical peptide derived from C terminus of MYC]”: the “binding affinity for TRIB3” value at TRIB3 protein is given as “only CM4 displayed a high binding affinity”. Further, in the assay on MAX and MYC, the “effect on the binding of MYC and MAX” value was “not”. Also, the “ability to bind MAX” value in the assay on MAX protein is listed as “not”.
Turning to “QAEEQKLISEEDLLR [CM3, α-helical peptide derived from C terminus of MYC]”, the “binding affinity for TRIB3” value on TRIB3 protein is recorded as “only CM4 displayed a high binding affinity”. Besides, the “effect on the binding of MYC and MAX” value in the assay with MAX and MYC is listed as “not”. In addition, the “ability to bind MAX” value with MAX protein is “not”.
With `CC(C)C[C@@H](C=O)NC(=O)[C@H](CC(C)C)NC(=O)[C@H](CC(C)C)NC(=O)OCc1ccccc1` [MG132] (Cbz-Leu-Leu-Leu-aldehyde), the “effect on the shortened MYC half-life induced by TRIB3 knockdown” value in assay [1] is given as “reversed”.
In the case of `CC/C(=C(\c1ccccc1)c1ccc(OCCN(C)C)cc1)c1ccccc1` [Tamoxifen, tamoxifen], in assay [2] (tamoxifen 250 mg/kg i.p. (induces Trib3 deletion), result in words), the “survival of lymphoma mice” value is given as “none of the tamoxifen-treated Myc^Eμ Cre^ERT2Trib3^F/+ mice died within 180 days”. Moreover, the “Survival status at day 180 (0: alive, 1: dead)” value in assay [2] (tamoxifen 250 mg/kg, status of individual mice at Day 180, Fig 1k source data) is 0.
As for “ERQRRNELKRSFFALR [CM1, α-helical peptide derived from C terminus (HLH domain) of MYC]”, at TRIB3 protein, the “binding affinity for TRIB3” value is recorded as “only CM4 displayed a high binding affinity”. Further, in the assay on MAX and MYC, the “effect on the binding of MYC and MAX” value is “decreased the binding of MYC and MAX”. Moreover, in the assay on MAX protein, the “ability to bind MAX” value is given as “showed a high ability to bind MAX”.
Consider “LRKERQRLEKQLHK [scramble peptide of CM4, reference compound]”, for which the “effect on the binding affinity of TRIB3 and MYC” value in the assay with TRIB3 and MYC is “not”.
With `Cc1c[nH]c(-c2cnc(NCCNc3ccc(C#N)cn3)nc2-c2ccc(Cl)cc2Cl)n1` [CT99021], the “UBE3B-mediated MYC ubiquitination” value with MYC ubiquitination was “decreased”.

Source of the values: PMC7725785, “TRIB3 promotes MYC-associated lymphoma development through suppression of UBE3B-mediated MYC degradation” (Nature Communications, 2020).
